Source: paper PMC3355094 (PLoS Pathogens, 2012)

What was measured:
A. aegypti larvae = test: Biotoxicity assay with recombinant E. coli; format: in vivo, Aedes aegypti; conditions: CCL2-expressing E. coli vs vector control
C. elegans fut-1(ok892) [1] = test: C. elegans liquid toxicity assay, feeding on recombinant E. coli; format: in vivo, Caenorhabditis elegans; conditions: fut-1(ok892) mutant
A. castellanii = test: Biotoxicity assay with recombinant E. coli; format: in vivo, Acanthamoeba castellanii; conditions: CCL2-expressing E. coli vs vector control
D. melanogaster = test: Biotoxicity assay with purified protein added to the rearing medium; format: in vivo, Drosophila melanogaster
[2] = Isothermal titration calorimetry, CCL2 wild type and variants binding to fucosylated chitobiose
Protocol: ITC experiments were performed on a VP-ITC instrument (MicroCal). The calorimeter was calibrated according to the manufacturer's instructions. Protein and carbohydrate samples were dialyzed against NMR buffer at room temperature using a 3.5 kDa membrane (Spectra/Por) and Micro DispoDialyzer (100 Da cutoff; Harvard Apparatus), respectively. The disaccharide Fucα1,3GlcNAc-OMe was not dialyzed but dissolved in NMR buffer. The sample cell (1.4 mL) was loaded with 70 µM protein; carbohydrate concentration in the syringe was 2–4 mM. A titration experiment typically consisted of 30–50 injections, each of 3 µL volume and 6 s duration, with a 6.7 min interval between additions. Stirring rate was 307 rpm. Raw data were integrated, corrected for nonspecific heats, normalized for the molar concentration, and analyzed according to a 1∶1 binding model.

C. elegans bre-1(ye4) = test: C. elegans liquid toxicity assay, feeding on recombinant E. coli; format: in vivo, Caenorhabditis elegans; conditions: bre-1(ye4) mutant, vs vector control
C. elegans wildtype (N2) = test: as above; format: in vivo, Caenorhabditis elegans
[3] = system: C. elegans fut-6(ok475)fut-1(ok892); test: as above; format: in vivo, Caenorhabditis elegans; conditions: fut-6(ok475)fut-1(ok892) double mutant, vs vector control
C. elegans fut-1(ok892) [4] = test: CCL2 nematotoxicity assay in solid media; format: in vivo, Caenorhabditis elegans
N91A = target: T1, N91A (Coprinopsis cinerea, UniProt B3GA02, N91A); test: biochemical; format: binding
T1 construct: gene ccl2

L87A = target: T2, L87A (Coprinopsis cinerea, UniProt B3GA02, L87A); test: biochemical; format: binding
T2 construct: gene ccl2

Y92A = target: T3, Y92A (Coprinopsis cinerea, UniProt B3GA02, Y92A); test: biochemical; format: binding
T3 construct: gene ccl2

W94A = target: T4, W94A (Coprinopsis cinerea, UniProt B3GA02, W94A); test: biochemical; format: binding
T4 construct: gene ccl2

W78A = target: T5, W78A (Coprinopsis cinerea, UniProt B3GA02, W78A); test: biochemical; format: binding
T5 construct: gene ccl2

Y57A = target: T6, Y57A (Coprinopsis cinerea, UniProt B3GA02, Y57A); test: biochemical; format: binding
T6 construct: gene ccl2

V93A = target: T7, V93A (Coprinopsis cinerea, UniProt B3GA02, V93A); test: biochemical; format: binding
T7 construct: gene ccl2

N90A = target: T8, N90A (Coprinopsis cinerea, UniProt B3GA02, N90A); test: biochemical; format: binding
T8 construct: gene ccl2

K109A = target: T9, K109A (Coprinopsis cinerea, UniProt B3GA02, K109A); test: biochemical; format: binding
T9 construct: gene ccl2

[5] = purified CCL2, relative to the control (BSA)
[6] = ITC, 299K, protein binding to GlcNAcβ1,4[Fucα1,3]GlcNAcβ1-sp
[7] = ITC, 299K, protein binding to GlcNAcβ1,4[Fucα1,3]GlcNAcβ1-sp, listed as Wild type
[8] = Table S6, ligand GlcNAc1,4[Fuc1,3]GlcNAc-O-spacer, This study

T2 sequence (B3GA02 2-142 L87A limits assumed): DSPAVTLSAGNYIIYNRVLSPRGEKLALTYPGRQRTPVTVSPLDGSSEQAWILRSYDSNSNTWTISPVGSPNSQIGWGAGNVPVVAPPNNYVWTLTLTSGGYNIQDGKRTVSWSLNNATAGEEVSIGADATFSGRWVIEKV
T7 sequence (B3GA02 2-142 V93A limits assumed): as the sequence (B3GA02 2-142 L87A limits assumed) above, with A86L, V92A counted along it
T6 sequence (B3GA02 2-142 Y57A limits assumed): as the sequence (B3GA02 2-142 L87A limits assumed) above, with Y56A, A86L counted along it
T4 sequence (B3GA02 2-142 W94A limits assumed): as the sequence (B3GA02 2-142 L87A limits assumed) above, with A86L, W93A counted along it
T3 sequence (B3GA02 2-142 Y92A limits assumed): as the sequence (B3GA02 2-142 L87A limits assumed) above, with A86L, Y91A counted along it
T1 sequence (B3GA02 2-142 N91A limits assumed): as the sequence (B3GA02 2-142 L87A limits assumed) above, with A86L, N90A counted along it
T5 sequence (B3GA02 2-142 W78A limits assumed): as the sequence (B3GA02 2-142 L87A limits assumed) above, with W77A, A86L counted along it
T9 sequence (B3GA02 2-142 K109A limits assumed): as the sequence (B3GA02 2-142 L87A limits assumed) above, with A86L, K108A counted along it
T8 sequence (B3GA02 2-142 N90A limits assumed): as the sequence (B3GA02 2-142 L87A limits assumed) above, with A86L, N89A counted along it

CCL2: novel fruiting body lectin from the ink cap mushroom Coprinopsis cinerea, recombinant, monomeric β-trefoil
toxicity (A. aegypti larvae): No significant differences | larvae reaching L4 stage (C. elegans fut-1(ok892) [1]; after 48 hours): half | susceptibility to CCL2-mediated toxicity (C. elegans fut-1(ok892) [1]; vs vector control): partially resistant | toxicity (A. castellanii): No significant differences | development of pupae and flies vs control (D. melanogaster; purified CCL2, BSA control): significantly different from the control | delay in development of flies (D. melanogaster; [5]): 10 fold | delay in development of pupae (D. melanogaster; [5]): 4 fold | Kd [2, 6]: 1.4 µM | ΔH [2, 6]: -12 kcal/mol | −TΔS [2, 6]: 3.82 kcal/mol | ΔH [2, 7]: -11.9 kcal/mol | −TΔS [2, 7]: 3.9 kcal/mol | –TΔS [2, 8]: 3.9 kcal/mol | –ΔH [2, 8]: 11.9 kcal/mol | susceptibility to CCL2-mediated toxicity (C. elegans bre-1(ye4)): not and completely resistant | reduction of development of L1 larvae (C. elegans wildtype (N2); 30% of CCL2-expressing E. coli among the fed bacteria): more than 95% | toxicity: development of L1 larvae vs vector control (C. elegans wildtype (N2); N2 fed E. coli expressing the lectin, L4 stage after 48 h): stopped the development of all wildtype (N2) L1 larvae | susceptibility to CCL2-mediated toxicity [3]: not and completely resistant | additional time required to reach L4 (C. elegans fut-1(ok892) [4]): at least 24 h | resistance to CCL2 (C. elegans fut-1(ok892) [4]): partial resistance

CC(=O)N[C@H]1[C@H](O[C@H]2[C@H](O[C@@H]3O[C@@H](C)[C@@H](O)[C@@H](O)[C@@H]3O)[C@@H](NC(C)=O)[C@H](OCCCCCC(=O)O)O[C@@H]2CO)O[C@H](CO)[C@@H](O)[C@@H]1O [GlcNAcβ1,4[Fucα1,3]GlcNAcβ1-sp, fucosylated chitobiose, GlcNAcβ1,4[Fucα1,3]GlcNAcβ-O(CH2)5COOH]
Kd (N91A): 0.18 µM | Kd (L87A): 26.3 µM | Kd (Y92A): > 500 µM | Kd (W94A): 310 µM | Kd (W78A): 62.9 µM | Kd (Y57A): 10.9 µM | Kd (V93A): 27.2 µM | Kd (N90A): 6.7 µM | Kd (K109A): 1.5 µM
